Experiment: Measurement of log P values by HPLC on reversed phase columns (EEC directive 79/831 Annex V.A8; methods [a] pH 2.3, [b] pH 2.7, [c] pH 7.8)
Type: physicochemical
Procedure: Measurement of log P-values:
Measurement of log P values was performed according EEC directive 79/831 Annex V.A8 by HPLC (High Performance Liquid Chromatography) on reversed phase columns with the following methods:
^[a] Measurement was done at pH 2.3 with 0.1% phosphoric acid and acetonitrile as eluent with a linear gradient from 10% acetonitrile to 95% acetonitrile.
^[b] measurement of LC-MS was done at pH 2.7 with 0.1% formic acid in water and with acetonitrile (contains 0.1% formic acid) as eluent with a linear gradient from 10% acetonitrile to 95% acetonitrile.
^[c] Measurement with LC-MS was done at pH 7.8 with 0.001 molar ammonium hydrogen carbonate solution in water as eluent with a linear gradient from 10% acetonitrile to 95% acetonitrile.
Calibration was done with not branched alkan2-ones (with 3 to 16 carbon atoms) with known log P-values (measurement of log P values using retention times with linear interpolation between successive alkanones).. lambda-maX-values were determined using UV-spectra from 200 nm to 400 nm and the peak values of the chromatographic signals.

[1] = method [b]: LC-MS, pH 2.7, 0.1% formic acid in water / acetonitrile
[2] = method [c]: LC-MS, pH 7.8, 0.001 molar ammonium hydrogen carbonate / acetonitrile
[3] = method [b]: LC-MS at pH 2.7, 0.1% formic acid in water / acetonitrile
[4] = method [c]: LC-MS at pH 7.8, 0.001 molar ammonium hydrogen carbonate in water / acetonitrile
[5] = method [a]: HPLC, pH 2.3, 0.1% phosphoric acid / acetonitrile

With `COC(c1ccc(Cl)cc1Cl)C(C)NC(=O)c1c(F)c(C)nn1C(F)F` (stereo not shown) [compound 114] the logP [1] was 4.57^[b].

In the case of `COC(c1cc(Cl)cc(Cl)c1)C(C)NC(=O)c1cccnc1C(F)F` (stereo not shown) [Compound 93], the logP [1] is reported as 2.03^[b].

`COC(c1ccc(Cl)cc1)C(C)NC(=O)c1c(F)cccc1F` (stereo not shown) [Compound 132, N-[1-(4-chlorophenyl)-1-methoxypropan-2-yl]-2,6-difluorobenzamide] gave a chromatographic logP (method [b]: LC-MS at pH 2.7, 0.1% formic acid in water / acetonitrile, read-out: log P) of 3.12.

With `COC(c1ccc(Cl)cc1Cl)C(C)(C)NC(=O)c1sccc1Cl` (stereo not shown) [Compound 78] the logP [1] was 5.34^[b] and the logP [2] was 5.31^[c];.

In the case of `COC(c1cc(Cl)cc(Cl)c1)C(C)NC(=O)c1nccnc1C(F)(F)F` (stereo not shown) [Compound 95], the logP [1] is reported as 3.74^[b].

In the case of `COC(CNC(=O)c1c(F)cccc1F)c1ccc(Cl)cc1` (stereo not shown) [Compound 72], the logP [1] is reported as 2.81^[b] and the logP [2] is reported as 2.79^[c];.

With `COC(c1ccc(Cl)cc1Cl)C(C)NC(=O)c1cn(C)nc1C(F)F` (stereo not shown) [compound 17] the logP [1] was 3.25^[b].

With `COC(c1ccc(Cl)cc1)C(C)NC(=O)c1ccccc1F` (stereo not shown) [Compound 133] the “log P” value [3] was 3.40^[b] and the “log P” value [4] was 3.44^[c];.

In the case of `COC(c1ccc(Cl)cc1Cl)C1(NC(=O)c2c(C(F)F)nn(C)c2F)CC1` (stereo not shown) [Compound 51], the logP [1] is reported as 3.46^[b].

In the case of `COC(c1ccc(Cl)cc1Cl)C1(NC(=O)c2cc([N+](=O)[O-])nn2C(F)F)CC1` (stereo not shown) [compound 122], the “log P” value [3] is reported as 3.94^[b].

With `CCC(NC(=O)c1c(C(F)F)nn(C)c1F)C(OC)c1ccc(Cl)cc1Cl` (stereo not shown) [Compound 49] the logP [1] was 3.94^[b].

In the case of `COC(c1ccc(Cl)cc1Cl)C1(NC(=O)c2ccccc2F)CC1` (stereo not shown) [Compound 155], the “log P” value [3] is reported as 3.78^[b] and the “log P” value [4] is reported as 3.75^[c];.

In the case of `COC(CN(C(=O)c1cccnc1C(F)(F)F)C1CC1)c1ccc(Cl)cc1Cl` (stereo not shown) [Compound 166], the “log P” value [3] is reported as 4.16^[b].

With `CCOC(c1ccc(Cl)cc1Cl)C(C)NC(=O)c1c(F)cccc1F` (stereo not shown) [Compound 196] the “log P” value [3] was 4.14^[b] and the “log P” value [4] was 4.13^[c];.

In the case of `COC(CN(C(=O)C1=C(C)OCCS1)C1CC1)c1ccc(Cl)cc1Cl` (stereo not shown) [Compound 169], the “log P” value [3] is reported as 4.11^[b].

In the case of `COC(CNC(=O)c1cccnc1C(F)(F)F)c1cc(Cl)cc(Cl)c1` (stereo not shown) [Compound 119], the “log P” value [3] is reported as 3.19^[b].

For `COC(c1ccc(F)cc1)C(C)NC(=O)c1ccccc1Br` (stereo not shown) [Compound 186], the “log P” value [3] was 2.99^[b] and the “log P” value [4] was 2.95^[c];.

With `COC(c1ccc(Cl)cc1Cl)C(C)(C)N(C)C(=O)c1ccccc1C(F)(F)F` (stereo not shown) [Compound 182] the “log P” value [3] was 5.42^[b] and the “log P” value [4] was 5.34^[c];.

In the case of `COC(CNC(=O)c1c(C(F)F)nn(C)c1F)c1ccc(Cl)cc1Cl` (stereo not shown) [Compound 45], the logP [1] is reported as 3.25^[b].

With `COC(c1ccc(Cl)cc1Cl)C1(NC(=O)c2ccccc2Br)CC1` (stereo not shown) [Compound 151] the “log P” value [3] was 3.82^[b] and the “log P” value [4] was 3.76^[c];.

For `COC(CNC(=O)c1cccnc1Cl)c1ccc(Cl)cc1Cl` (stereo not shown) [Compound 102], the logP [1] was 2.75^[b].

With `COC(CNC(=O)c1c(C(F)F)nn(C)c1Cl)c1cc(Cl)cc(Cl)c1` (stereo not shown) [Compound 40] the logP [1] was 3.55^[b].

In the case of `COC(CNC(=O)c1cccnc1C(F)F)c1cc(Cl)cc(Cl)c1` (stereo not shown) [Compound 117], the “log P” value [3] is reported as 2.88^[b].

With `CCOC(c1ccc(Cl)cc1Cl)C(C)NC(=O)c1ccccc1I` (stereo not shown) [Compound 197] the “log P” value [3] was 4.51^[b] and the “log P” value [4] was 4.56^[c];.

In the case of `COC(c1ccc(Cl)cc1Cl)C1(NC(=O)c2ccccc2C)CC1` (stereo not shown) [Compound 153], the “log P” value [3] is reported as 3.75^[b] and the “log P” value [4] is reported as 3.72^[c];.

In the case of `COC(c1ccc(Cl)cc1Cl)C(C)NC(=O)c1c(C(F)F)nn(C)c1F` (stereo not shown) [compound 14], the logP [1] is reported as 3.65^[b].

In the case of `COC(c1cc(Cl)cc(Cl)c1)C(C)NC(=O)c1c(C(F)F)nn(C)c1Cl` (stereo not shown) [Compound 42], the logP [1] is reported as 3.92^[b].

In the case of `COC(CN(C(=O)c1nccnc1C(F)(F)F)C1CC1)c1ccc(Cl)cc1Cl` (stereo not shown) [Compound 168], the “log P” value [3] is reported as 4.37^[b].

For `COC(CNC(=O)c1c(C(F)F)nn(C)c1F)c1cc(Cl)cc(Cl)c1` (stereo not shown) [Compound 41], the logP [1] was 3.33^[b].

In the case of `COC(c1ccc(Cl)cc1Cl)C1(NC(=O)c2c(F)cccc2F)CC1` (stereo not shown) [Compound 150], the “log P” value [3] is reported as 3.57^[b] and the “log P” value [4] is reported as 3.53^[c];.

For `COC(c1ccc(Cl)cc1Cl)C(C)NC(=O)c1cc(C)nn1C` (stereo not shown) [compound 124], the “log P” value [3] was 3.08^[b].

For `C#CCOC(c1ccc(Cl)cc1)C(C)(C)NC(=O)c1sccc1C` (stereo not shown) [compound 4], the logP [5] was 4.22^[a].

With `COC(c1ccc(Cl)cc1)C(C)(C)NC(=O)c1cccnc1Cl` (stereo not shown) [Compound 81] the logP [1] was 3.24^[b] and the logP [2] was 3.23^[c];.

In the case of `COC(c1ccc(Cl)cc1Cl)C1(NC(=O)c2ccccc2Cl)CC1` (stereo not shown) [Compound 154], the “log P” value [3] is reported as 3.76^[b] and the “log P” value [4] is reported as 3.71^[c];.

In the case of `COC(c1ccc(Cl)cc1Cl)C(C)(C)NC(=O)c1ccccc1F` (stereo not shown) [Compound 74], the logP [1] is reported as 4.80^[b] and the logP [2] is reported as 4.77^[c];.

With `COC(c1ccc(Cl)cc1)C(C)NC(=O)c1cccnc1Cl` (stereo not shown) [Compound 135] the “log P” value [3] was 2.65^[b] and the “log P” value [4] was 2.62^[c];.

With `COC(c1ccc(Cl)cc1)C(C)(C)NC(=O)c1ccccc1C(F)(F)F` (stereo not shown) [Compound 85] the logP [1] was 4.25^[b] and the logP [2] was 3.99^[c];.

For `CCOC(c1ccc(Cl)cc1Cl)C(C)NC(=O)c1c(C(F)F)nn(C)c1Cl` (stereo not shown) [Compound 46], the logP [1] was 4.46^[b].

In the case of `COC(c1ccc(Cl)cc1Cl)C1(NC(=O)c2c(C(F)F)nn(C)c2Cl)CC1` (stereo not shown) [Compound 50], the logP [1] is reported as 3.70^[b].

With `COC(c1ccc(F)cc1)C(C)NC(=O)c1c(F)cccc1F` (stereo not shown) [Compound 185] the “log P” value [3] was 2.80^[b] and the “log P” value [4] was 2.76^[c];.

For `COC(c1ccc(Cl)cc1)C(C)(C)NC(=O)c1sccc1I` (stereo not shown) [Compound 87], the logP [1] was 4.77^[b] and the logP [2] was 4.47^[c];.

In the case of `COC(c1ccc(Cl)cc1)C(C)NC(=O)c1ccccc1I` (stereo not shown) [Compound 137], the “log P” value [3] is reported as 3.44^[b] and the “log P” value [4] is reported as 3.42^[c];.

With `COC(c1ccc(Cl)cc1)C(C)NC(=O)c1ccsc1` (stereo not shown) [Compound 62] the logP [1] was 2.84^[b].

For `COC(CNC(=O)c1cn(C)nc1C(F)F)c1ccccc1` (stereo not shown) [Compound 16], the logP [1] was 1.93^[b].

For `C#CCOC(c1ccc(Cl)c(Cl)c1)C(C)(C)NC(=O)c1sccc1C` (stereo not shown) [compound 3], the logP [5] was 4.58^[a].

In the case of `COC(c1ccc(F)cc1)C(C)NC(=O)c1ccccc1C(F)(F)F` (stereo not shown) [Compound 190], the “log P” value [4] is reported as 3.16^[c].

In the case of `COC(c1ccc(Cl)cc1Cl)C(C)NC(=O)c1c(C)nn(C)c1F` (stereo not shown) [compound 13], the logP [1] is reported as 3.13^[b].

In the case of `CCn1nc(C)c(C)c1C(=O)NC(C)C(OC)c1ccccc1` (stereo not shown) [Compound 55], the logP [1] is reported as 2.71^[b].

For `COC(CNC(=O)c1cccnc1C(F)F)c1ccc(Cl)cc1Cl` (stereo not shown) [Compound 101], the logP [1] was 2.80^[b].

With `COC(c1ccc(Cl)cc1)C(C)NC(=O)c1snc(Cl)c1Cl` (stereo not shown) [Compound 61] the logP [1] was 4.34^[b].

In the case of `COC(c1cc(Cl)cc(Cl)c1)C(C)NC(=O)c1cccnc1C(F)(F)F` (stereo not shown) [Compound 96], the logP [1] is reported as 3.52^[b].

For `COC(CNC(=O)c1cccnc1Cl)c1cc(Cl)cc(Cl)c1` (stereo not shown) [Compound 118], the “log P” value [3] was 2.82^[b].

In the case of `CCOC(c1ccc(Cl)cc1Cl)C(C)NC(=O)c1sc(C)nc1C(F)(F)F` (stereo not shown) [Compound 204], the “log P” value [3] is reported as 4.37^[b] and the “log P” value [4] is reported as 4.42^[c];.

In the case of `COC(c1ccccc1Cl)C(C)NC(=O)c1ccccc1I` (stereo not shown) [Compound 146], the “log P” value [3] is reported as 3.44^[b] and the “log P” value [4] is reported as 3.40^[c];.

For `CCOC(c1ccc(Cl)cc1Cl)C(C)NC(=O)c1cccnc1` (stereo not shown) [Compound 206], the “log P” value [3] was 2.89^[b] and the “log P” value [4] was 3.03^[c];.

With `CCOC(c1ccc(Cl)cc1Cl)C(C)NC(=O)c1ccccc1Cl` (stereo not shown) [Compound 201] the “log P” value [3] was 4.35^[b] and the “log P” value [4] was 4.39^[c];.

Reference: patent publication US20160100579A1, “NEMATICIDAL N-(2-SUBSTITUTED 2-PHENYLETHYL)CARBOXAMIDES AND N-(2-SUBSTITUTED 2-PHENYLETHYL)-THIOCARBOXAMIDES” (priority 2013, published 2016)
